Assay results published in ChEMBL document CHEMBL4619813, “Virtual Screening for Ligand Discovery at the σ1 Receptor” (ACS Med Chem Lett, 2020).

What was measured:
[1] = molecular target: Sigma non-opioid intracellular receptor 1 (Homo sapiens, UniProt Q99720); experiment: Displacement of [3H](+)-pentazocine from recombinant sigma 1 receptor (unknown origin) expressed in baculovirus infected Sf9 cell membranes after 1.5 hrs by scintillation counting analysis
[2] = molecular target: Sigma intracellular receptor 2 (Homo sapiens, UniProt Q5BJF2); experiment: Displacement of [3H](+)-DTG from recombinant sigma 2 receptor (unknown origin) expressed in baculovirus infected Sf9 cell membranes after 1.5 hrs by scintillation counting analysis
[3] = Selectivity ratio of Ki for displacement of [3H](+)-DTG from recombinant sigma 2 receptor (unknown origin) expressed in baculovirus infected Sf9 cell membranes to Ki for displacement of [3H](+)-pentazocine from recombinant sigma 1 receptor (unknown origin) expressed in baculovirus infected Sf9 cell membranes; settings: Homo sapiens

Sequence of Sigma intracellular receptor 2 (Q5BJF2 whole entry): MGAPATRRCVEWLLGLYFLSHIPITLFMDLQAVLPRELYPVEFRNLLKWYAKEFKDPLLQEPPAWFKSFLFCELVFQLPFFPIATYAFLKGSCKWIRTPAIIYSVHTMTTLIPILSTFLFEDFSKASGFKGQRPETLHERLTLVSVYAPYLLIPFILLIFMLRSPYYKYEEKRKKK
Sequence of Sigma non-opioid intracellular receptor 1 (Q99720 whole entry): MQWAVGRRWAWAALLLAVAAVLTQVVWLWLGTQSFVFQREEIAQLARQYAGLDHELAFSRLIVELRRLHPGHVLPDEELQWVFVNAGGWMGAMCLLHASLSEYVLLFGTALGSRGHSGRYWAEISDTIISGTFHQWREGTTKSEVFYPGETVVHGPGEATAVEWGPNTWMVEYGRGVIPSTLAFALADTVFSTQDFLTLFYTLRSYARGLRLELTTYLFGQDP

| SMILES | Ki [1] [nM] | Ki [2] [nM] | Ratio Ki [3] | Kd [1] [nM] | Kd [2] [nM] |
| --- | --- | --- | --- | --- | --- |
| NC(=O)c1cccc(CNC2CCN(c3ccc(F)c(Cl)c3)C2)c1 (stereo not given) | 220 | 250 | 1.1 |  |  |
| O=C(c1c[nH]c2ccccc12)N1CCC(N2CCc3ccccc3C2)C1 (stereo not given) |  |  |  | > 1000 | > 1000 |
| FC(F)(F)c1cccc(-c2ccc(CNCc3cccnc3)o2)c1 | 191 |  |  |  |  |
| Cc1nn(CCO)cc1CN(C)Cc1csc(-c2ccccc2)n1 | 127 | 2370 | 18.7 |  |  |
| OC1COCCC1NC1CCN(c2ccc(C(F)(F)F)cn2)CC1 (stereo not given) | 18 | 15 | 0.8 |  |  |
| O=C(c1ccc(C(F)(F)F)cc1)N1CCN(Cc2ccccc2)CC1 | 915 |  |  |  |  |
| Cc1c(C(=O)NC(CN(C)C)c2ccccc2)cnn1-c1ccc(F)cc1 (stereo not given) |  |  |  | > 1000 | > 1000 |
| Cc1nn(-c2ccccc2Cl)c(Cl)c1CNCc1cc(F)cc(F)c1 | 164 | 985 | 6 |  |  |
| CC(CCc1c[nH]c2ccccc12)NC1CCN(C(=O)C(C)C)CC1 (stereo not given) |  |  |  | > 1000 | > 1000 |
| FC(F)(F)c1cccc(N2CCC(/N=C/c3ccc(Br)cc3)N2)c1 (stereo not given) |  |  |  | > 1000 | > 1000 |
| NC(Cc1ccccc1)C(=O)N1CCN(c2ccc3nccn3n2)CC1 (stereo not given) |  |  |  | > 1000 | > 1000 |
| Fc1ccc(CN2CCCN(C(=S)Nc3cc(F)cc(F)c3)C2)cc1 | 23 | 949 | 41.3 |  |  |
| Cc1[nH]c2cc(C(F)(F)F)ccc2c(=O)c1CN(C)Cc1ccccc1 | 89 | 2950 | 33.2 |  |  |
